From US10858360B2, “Tricyclic gyrase inhibitors” (priority 2011, dated 2020)
≈ marks a conversion by molar mass, not a printed value. Where two headings read alike, the source gives them in different places.

Assays:
E. coli ATCC 25922 = experiment: MIC, E. coli ATCC 25922; type: cell-based; settings: for MIC: Escherichia coli, ATCC25922, E. coli
S. aureus ATCC 13709 = experiment: MIC, S. aureus ATCC 13709 (Alamar Blue broth microdilution); type: cell-based; settings: for MIC: Staphylococcus aureus, ATCC13709, S. aureus
[1] = E. coli, Alamar Blue read after overnight incubation at 35° C.
[2] = S. aureus, Alamar Blue read after overnight incubation at 35° C.
[3] = Alamar Blue read after overnight incubation at 35° C.

| SMILES | MIC Ec (E. coli ATCC 25922; [1]) | MIC Sa (S. aureus ATCC 13709; [2]) | MIC (E. coli ATCC 25922; [3]) | MIC (S. aureus ATCC 13709; [3]) | other results |
| --- | --- | --- | --- | --- | --- |
| CNc1cc(F)cc2c1[nH]c1nc(Oc3ccc(C(C)=O)nc3)nc(N3CC4CCNC4C3)c12 (centres unmarked) [4.309] | ≤0.5 µg/mL | ≤0.5 µg/mL | – | – | – |
| CNc1cc(F)cc2c1[nH]c1nc(Oc3cnc(C4CC4)nc3)nc(N3CC(N)C4(CC4)C3)c12 (centres unmarked) [4.242] | ≤0.5 µg/mL | ≤0.5 µg/mL | – | – | – |
| CNc1cc(F)cc2c1[nH]c1nc(Oc3cnc4c(c3)OC=CO4)nc(N3C[C@H](N)C4(CC4)C3)c12 [4.305] | 1 µg/mL (≈ 2.1 µM) | ≤0.5 µg/mL | – | – | – |
| CNc1ncnc2c1[nH]c1nc(Oc3cnc(C)nc3)nc(N3CCC(CN)C3)c12 (centres unmarked) [7.12] | – | – | > 64 µg/mL | > 64 µg/mL | – |
| CNc1cc(F)cc2c1[nH]c1nc(Oc3ccc4c(c3)C(=O)NC4)nc(N3CCC4(CC4N)C3)c12 (centres unmarked) [4.266] | 1 µg/mL (≈ 2.11 µM) | ≤0.5 µg/mL | – | – | – |
| CNc1cc(F)cc2c1[nH]c1nc(Oc3cncc(C#N)c3)nc(N3CC4(CCC4N)C3)c12 (centres unmarked) [4.054] | ≤0.5 µg/mL | ≤0.5 µg/mL | – | – | – |
| CNc1cccc2c1[nH]c1nc(Oc3cnc(C)nc3)nc(Oc3cnc(C)nc3)c12 [3.38] | – | – | > 32 µg/mL | 1 µg/mL (≈ 2.41 µM) | – |
| CNc1cc(F)cc2c1[nH]c1nc(Oc3cncc(C(N)=O)c3)nc(N3CC4CC(N)C4C3)c12 (centres unmarked) [4.236] | – | – | ≤ 0.5 µg/mL | ≤ 0.5 µg/mL | – |
| CNc1cccc2c1[nH]c1nc(Sc3cncc(S(=O)(=O)N(C)C)c3)nc(N3CC4C(N)C4C3)c12 (centres unmarked) [1.22] | – | – | 8 µg/mL (≈ 15.7 µM) | 1 µg/mL (≈ 1.96 µM) | – |
| CNc1cc(C)cc2c1[nH]c1nc(Oc3cncnc3)nc(N3CC4C(N)C4C3)c12 (centres unmarked) [6.27] | – | – | – | – | MIC Ec (E. coli ATCC 25922): 1 µg/mL (≈ 2.48 µM); MIC Sa (S. aureus ATCC 13709): ≤0.5 µg/mL |
| CNc1cc(F)cc2c1[nH]c1nc(Oc3cncnc3)nc(N3CC(C)C(CN)C3)c12 (centres unmarked) [4.023] | 1 µg/mL (≈ 2.37 µM) | ≤0.5 µg/mL | – | – | – |
| CNc1cc(F)cc2c1[nH]c1nc(Oc3cncnc3)nc(N3CCC4(CC4N)C3)c12 (centres unmarked) [4.003] | – | – | ≤ 0.5 µg/mL | ≤ 0.5 µg/mL | – |
| CNc1ncnc2c1[nH]c1nc(Oc3cncc(F)c3)nc(N3CCC4(CC4N)C3)c12 (centres unmarked) [7.07] | – | – | > 64 µg/mL | 16 µg/mL (≈ 38 µM) | – |
| CNc1ccc(C)c2c1[nH]c1nc(Sc3cnc4ccc[n+]([O-])c4c3)nc(N3CC(N)C4(CC4)C3)c12 (centres unmarked) [1.72] | – | – | 1 µg/mL (≈ 2.01 µM) | ≤ 0.5 µg/mL | – |
| CNc1nccc2c1[nH]c1nc(Oc3cncnc3)nc(N3CC[C@@H](N)C3)c12 [7.02] | – | – | 32 µg/mL (≈ 84.8 µM) | > 64 µg/mL | – |
| CNc1ncc(Oc2nc(N3CCC4(CC4N)C3)c3c(n2)[nH]c2c(NC)cc(F)cc23)cn1 (centres unmarked) [4.220] | – | – | ≤ 0.5 µg/mL | ≤ 0.5 µg/mL | – |

| SMILES | MIC Ec (E. coli ATCC 25922; [1]) | MIC Sa (S. aureus ATCC 13709; [2]) | MIC (E. coli ATCC 25922; [3]) | MIC (S. aureus ATCC 13709; [3]) | other results |
| --- | --- | --- | --- | --- | --- |
| CNc1cc(F)cc2c1[nH]c1nc(Oc3cnc(C)nc3)nc(N3CC4CNC(C4)C3)c12 (centres unmarked) [4.072] | – | – | 1 µg/mL (≈ 2.3 µM) | ≤ 0.5 µg/mL | – |
| CNc1cc(F)cc2c1[nH]c1nc(Oc3cnc(N)nc3)nc(N3CC(NC(=O)CN)C4(CC4)C3)c12 (centres unmarked) [4.182] | 16 µg/mL (≈ 32.5 µM) | 2 µg/mL (≈ 4.06 µM) | – | – | – |
| Cc1ncc(Oc2nc(N3CC4CC3C[C@@H]4N)c3c(n2)[nH]c2c(N)cc(F)cc23)cn1 (some centres unmarked) [2.160] | – | – | 16 µg/mL (≈ 38.1 µM) | 8 µg/mL (≈ 19 µM) | – |
| CNc1cc(F)c(F)c2c1[nH]c1nc(Oc3cnc(C)nc3)nc(N3CC4(CC[C@H]4N)C3)c12 [5.01] | – | – | ≤ 0.5 µg/mL | ≤ 0.5 µg/mL | – |
| CNc1cc(F)cc2c1[nH]c1nc(Oc3cncc(Cl)c3)nc(N3CC4C(N)C4C3)c12 (centres unmarked) [4.272] | – | – | ≤ 0.5 µg/mL | ≤ 0.5 µg/mL | – |
| CNc1cc(F)cc2c1[nH]c1nc(Oc3ccc4nc[nH]c(=O)c4c3)nc(N3CC4C(N)C4C3)c12 (centres unmarked) [4.231] | 2 µg/mL (≈ 4.23 µM) | ≤0.5 µg/mL | – | – | – |
| CNc1cc(F)cc2c1[nH]c1nc(Oc3cnc(N(C)C)nc3)nc(N3C[C@H](N)C4(CC4)C3)c12 [4.209] | – | – | ≤ 0.5 µg/mL | ≤ 0.5 µg/mL | – |
| CNc1cc(F)cc2c1[nH]c1nc(Oc3ccc4c(c3)C(=O)NCC4)nc(N3CCC4(CC4N)C3)c12 (centres unmarked) [4.300] | ≤0.5 µg/mL | ≤0.5 µg/mL | – | – | – |
| CNc1cc(F)cc2c1[nH]c1nc(Oc3ccc[n+]([O-])c3)nc(N3CC4C[C@@H](N)C4C3)c12 (some centres unmarked) [4.349] | – | – | 1 µg/mL (≈ 2.3 µM) | ≤ 0.5 µg/mL | – |
| CNc1ccc(C)c2c1[nH]c1nc(Sc3cnc4cccnc4c3)nc(N3CC4C(N)C4C3)c12 (centres unmarked) [1.58] | – | – | 8 µg/mL (≈ 17.1 µM) | ≤ 0.5 µg/mL | – |
| CNc1cc(F)cc2c1[nH]c1nc(Oc3ccc4nc5n(c(=O)c4c3)CCC5)nc(N3CC4C[C@@H](N)C4C3)c12 (some centres unmarked) [4.376] | – | – | > 16 µg/mL | > 16 µg/mL | – |
| CNc1cc(F)cc2c1[nH]c1nc(Oc3cnc4[nH]cnc4c3)nc(N3C[C@H](N)C4(CC4)C3)c12 [4.313] | >16 µg/mL | 8 µg/mL (≈ 17.4 µM) | – | – | – |
| CNc1cc(F)cc2c1[nH]c1nc(Oc3cnc(C)nc3)nc(N3CCNC4(CC4)C3)c12 [4.132] | 2 µg/mL (≈ 4.6 µM) | ≤0.5 µg/mL | – | – | – |
| CNc1cccc2c1[nH]c1nc(Sc3cncnc3)nc(N3CC4C(N)C4C3)c12 (centres unmarked) [1.43] | – | – | 8 µg/mL (≈ 19.8 µM) | 2 µg/mL (≈ 4.94 µM) | – |
| CNc1cc(F)cc2c1[nH]c1nc(Oc3cnc(C)nc3)nc(N3CC(C)C(CN)C3)c12 (centres unmarked) [4.087] | 1 µg/mL (≈ 2.29 µM) | ≤0.5 µg/mL | – | – | – |
